What was measured:
Format in all cases: cell-based
E. faecalis = experiment: Bacteriostatic screening (growth, OD630) against E. faecalis; conditions: for IC50: 24 h, IC50 generated when inhibition at 250 μM was higher than 80%
Protocol: (§1) The strategy in this study was to submit these synthesized compounds to a preliminary screening test against E. coli, S. aureus and E. faecalis (ciprofloxacin was used as a reference compound; see Table 1). […] The tested compound or ciprofloxacin (positive drug) was dissolved in DMSO and diluted with LB liquid medium into a stock solution containing 20% DMSO before use; the stock solution of the carrier was 20% DMSO in LB liquid medium. All the experiments, including blank controls, were performed in triplicate. Bacteriostatic screening was performed by applying a modified protocol of the National Committee on Clinical Laboratory Standards (NCCLS).[29] Briefly, E. coli, S. aureus and E. faecalis cells (American Type Culture Collection, ATCC) were grown in LB plate medium for one passage, then seeded in LB liquid medium and cultured at 37 °C for 12 h. After being diluted 1000 times, 190 μL diluted cells were aliquoted to 96-well plates; then, 10 μL stock solution of carrier or a gradient amount of the tested compound or the positive compound, ciprofloxacin, were added; the final concentration of DMSO was 1% in all wells. The blank controls contained 1% DMSO and LB medium but no bacterial cells.

E. coli = experiment: Bacteriostatic screening (growth, OD630) against E. coli; conditions: for inhibition rate EC (symbol /): at 250 μM of tested compound
Protocol: as §1

S. aureus = experiment: Bacteriostatic screening (growth, OD630) against S. aureus; conditions: for inhibition rate SA (symbol /): at 250 μM of tested compound
Protocol: as §1

[1] = at 250 μM of the tested compound, 250 µM
[2] = at 250 μM of the tested compound

Row | Molecule | IC50 (E. faecalis) [µM] | inhibition rate EC (symbol /) (E. coli) | inhibition rate (%) SA (S. aureus; [1]) | inhibition rate (%) EC (E. coli; [2]) | inhibition rate (%) SA (S. aureus; [2]) | other results
1 | C=C1CCC2C3(C)COC(C)(C)OC3CCC2(C)C1CC=C1C(=O)OCC1Oc1cccnc1[N+](=O)[O-] (stereo not drawn) [5b15, (14β)-(2′-Nitro-pyridinyl-3′-oxy)-3,19-acetonylidene andrographolide] | 38.4 ± 3.4 | / (“/”represents no inhibition or lower than 10% inhibition rate at 250 μM of tested compound) | (33) % |  |  | 
2 | C=C1CCC2C(C)(CO)C(O)CCC2(C)C1CC=C1C(=O)OCC1Oc1ccc([N+](=O)[O-])cc1F (stereo not drawn) [6a2, (14α)-(2′-Fluoro-4′-nitro)phenoxy-andrographolide] | 38.7 ± 4.5 |  | (65) % |  |  | inhibition rate (%) EC (E. coli; [1]): (67) %
3 | C=C1CCC2C(C)(CO)C(O)CCC2(C)C1CC=C1C(=O)OCC1Oc1ccc([N+](=O)[O-])cc1OC (stereo not drawn) [6a3, (14α)-(2′-Methoxy-4′-nitro)phenoxy-andrographolide] | 113 ± 14.3 |  | (17) % |  |  | inhibition rate (%) EC (E. coli; [1]): (31) %
4 | C=C1CCC2C(C)(CO)C(O)CCC2(C)C1CC=C1C(=O)OCC1Oc1ccc([N+](=O)[O-])c(F)c1 (stereo not drawn) [6a4, (14α)-(3′-Fluoro-4′-nitro)phenoxy-andrographolide] |  | / (“/”represents no inhibition or lower than 10% inhibition rate at 250 μM of tested compound) |  |  |  | inhibition rate (%) EF (E. faecalis; [2]): (44) %; inhibition rate SA (symbol /) (S. aureus): / (“/”represents no inhibition or lower than 10% inhibition rate at 250 μM of tested compound)
5 | C=C1CCC2C(C)(CO)C(O)CCC2(C)C1CC=C1C(=O)OCC1Oc1ccc([N+](=O)[O-])c(OC)c1 (stereo not drawn) [6a5, (14α)-(3′-methoxy-4′-nitro)phenoxy-andrographolide] | 50.4 ± 2.7 |  | (10) % |  |  | inhibition rate (%) EC (E. coli; [1]): (11) %
6 | C=C1CCC2C(C)(CO)C(O)CCC2(C)C1CC=C1C(=O)OCC1Oc1ccccc1C(=O)OCC (stereo not drawn) [6a8, (14α)-(2′-Carboxyethyl ester)phenoxy-andrographolide] | 83.3 ± 8.3 |  |  | (21) % | (17) % | 
7 | C=C1CCC2C(C)(CO)C(O)CCC2(C)C1CC=C1C(=O)OCC1Oc1ccc(C(=O)OCC)cc1 (stereo not drawn) [6a9, (14α)-(4′-Carboxyethyl ester)phenoxy-andrographolide] | 38.3 ± 5.9 | / (“/”represents no inhibition or lower than 10% inhibition rate at 250 μM of tested compound) |  |  |  | inhibition rate SA (symbol /) (S. aureus): / (“/”represents no inhibition or lower than 10% inhibition rate at 250 μM of tested compound)
8 | C=C1CCC2C(C)(CO)C(O)CCC2(C)C1CC=C1C(=O)OCC1Oc1ccccc1OC (stereo not drawn) [6a12, (14α)-(2′-Methoxy)phenoxy-andrographolide] | 75.6 ± 17.8 | / (“/”represents no inhibition or lower than 10% inhibition rate at 250 μM of tested compound) | (14) % |  |  | 
9 | C=C1CCC2C(C)(CO)C(O)CCC2(C)C1CC=C1C(=O)OCC1Oc1cccnc1[N+](=O)[O-] (stereo not drawn) [6a15, (14α)-(2′-Nitro-pyridinyl-3′-oxy)andrographolide] | 56.7 ± 5.5 |  | (13) % | (14) % |  | 
10 | C=C1CCC2C(C)(CO)C(O)CCC2(C)C1CC=C1C(=O)OCC1Oc1ccnc2ccccc12 (stereo not drawn) [6a16, (14α)-(Quinolyl-4′-oxy)andrographolide] | 65.8 ± 13.5 | / (“/”represents no inhibition or lower than 10% inhibition rate at 250 μM of tested compound) |  |  | (22) % | 
11 | C=C1CCC2C(C)(CO)C(O)CCC2(C)C1CC=C1C(=O)OCC1Oc1ccc([N+](=O)[O-])cc1F (stereo not drawn) [6b2, (14β)-(2′-Fluoro-4′-nitro)phenoxy-andrographolide] | 24.4 ± 3.2 |  | (25) % |  |  | inhibition rate (%) EC (E. coli; [1]): (42) %
12 | C=C1CCC2C(C)(CO)C(O)CCC2(C)C1CC=C1C(=O)OCC1Oc1ccc([N+](=O)[O-])c(F)c1 (stereo not drawn) [6b4, (14β)-(3′-Fluoro-4′-nitro)phenoxy-andrographolide] | 19.6 ± 2.7 |  |  | (60) % | (28) % | 
13 | C=C1CCC2C(C)(CO)C(O)CCC2(C)C1CC=C1C(=O)OCC1Oc1ccc([N+](=O)[O-])c(OC)c1 (stereo not drawn) [6b5, (14β)-(3′-Methoxy-4′-nitro)phenoxy-andrographolide] | 21.8 ± 2.5 |  | (37) % |  |  | inhibition rate (%) EC (E. coli; [1]): (23) %
14 | C=C1CCC2C(C)(CO)C(O)CCC2(C)C1CC=C1C(=O)OCC1Oc1ccccc1[N+](=O)[O-] (stereo not drawn) [6b6, (14β)-(2′-Nitro)phenoxy-andrographolide] | 15.9 ± 9 |  |  | (28) % | (12) % | 
15 | C=C1CCC2C(C)(CO)C(O)CCC2(C)C1CC=C1C(=O)OCC1Oc1cccc([N+](=O)[O-])c1 (stereo not drawn) [6b7, (14β)-(3′-Nitro)phenoxy-andrographolide] | 17.8 ± 4.2 | / (“/”represents no inhibition or lower than 10% inhibition rate at 250 μM of tested compound) |  |  | 26% | 
16 | C=C1CCC2C(C)(CO)C(O)CCC2(C)C1CC=C1C(=O)OCC1Oc1ccccc1C(=O)OCC (stereo not drawn) [6b8, (14β)-(2′-Carboxyethyl ester)phenoxy-andrographolide] | 89.7 ± 12 |  |  | (21) % |  | inhibition rate SA (symbol /) (S. aureus): / (“/”represents no inhibition or lower than 10% inhibition rate at 250 μM of tested compound)
17 | C=C1CCC2C(C)(CO)C(O)CCC2(C)C1CC=C1C(=O)OCC1Oc1ccc(C(=O)OCC)cc1 (stereo not drawn) [6b9, (14β)-(4′-Carboxyethyl ester)phenoxy-andrographolide] | 53.3 ± 4.1 |  |  | (17) % | (40) % | 
18 | C=C1CCC2C(C)(CO)C(O)CCC2(C)C1CC=C1C(=O)OCC1Oc1ccc(C#N)cc1 (stereo not drawn) [6b10, (14β)-(4′-Cyano)phenoxy-andrographolide] | 72.1 ± 9.4 |  |  | (39) % | (29) % | 
19 | C=C1CCC2C(C)(CO)C(O)CCC2(C)C1CC=C1C(=O)OCC1Oc1ccc(OC)cc1 (stereo not drawn) [6b11, (14β)-(4′-Methoxy)phenoxy-andrographolide] |  | / (“/”represents no inhibition or lower than 10% inhibition rate at 250 μM of tested compound) |  |  |  | inhibition rate (%) EF (E. faecalis; [2]): (17) %; inhibition rate SA (symbol /) (S. aureus): / (“/”represents no inhibition or lower than 10% inhibition rate at 250 μM of tested compound)
20 | C=C1CCC2C(C)(CO)C(O)CCC2(C)C1CC=C1C(=O)OCC1Oc1ccccc1OC (stereo not drawn) [6b12, (14β)-(2′-Methoxy)phenoxy-andrographolide] | 20.8 ± 4.5 |  | (13) % | (12) % |  | 
21 | C=C1CCC2C(C)(CO)C(O)CCC2(C)C1CC=C1C(=O)OCC1Oc1cccc(OC)c1 (stereo not drawn) [6b13, (14β)-(3′-Methoxy)phenoxy-andrographolide] | 138 ± 5.4 |  |  | 15% | 13% | 
22 | C=C1CCC2C(C)(CO)C(O)CCC2(C)C1CC=C1C(=O)OCC1Oc1cccc2ccccc12 (stereo not drawn) [6b14, (14β)-(Naphthyl-1′-oxy)andrographolide] |  |  |  | (35) % | (18) % | inhibition rate (%) EF (E. faecalis; [2]): (50) %
23 | C=C1CCC2C(C)(CO)C(O)CCC2(C)C1CC=C1C(=O)OCC1Oc1cccnc1[N+](=O)[O-] (stereo not drawn) [6b15, (14β)-(2′-Nitro-pyridinyl-3′-oxy)andrographolide] | 29.3 ± 2.1 |  | (41) % | (14) % |  | 
24 | C=C1CCC2C(C)(CO)C(O)CCC2(C)C1CC=C1C(=O)OCC1Oc1ccnc2ccccc12 (stereo not drawn) [6b16, (14β)-(Quinolyl-4′-oxy)andrographolide] | 58.5 ± 4.2 | / (“/”represents no inhibition or lower than 10% inhibition rate at 250 μM of tested compound) |  |  |  | inhibition rate SA (symbol /) (S. aureus): / (“/”represents no inhibition or lower than 10% inhibition rate at 250 μM of tested compound)
25 | C=C1CC[C@H]2[C@@](C)(CCC(=O)[C@@]2(C)CO[Si](C)(C)C(C)(C)C)[C@@H]1C/C=C1/C(=O)OC[C@@H]1Oc1cccc2cccnc12 [8b2, (14β)-(quinolyl-8′-oxy)-3-keto-19-(t-butyldimethylsilyloxy)andrographolide] |  |  |  |  |  | inhibition at 250 µM (E. faecalis; Enterococcus faecalis, at 250 μM of the tested compound, read-out: inhibition rate (%) EF): 71%; inhibition at 250 µM (E. coli; Escherichia coli, at 250 μM of the tested compound, read-out: inhibition rate (%) EC): 25%; inhibition at 250 µM (S. aureus; Staphylococcus aureus, at 250 μM of the tested compound, read-out: inhibition rate (%) SA): 28%
26 | O=C(O)c1cn(C2CC2)c2cc(N3CCNCC3)c(F)cc2c1=O [Ciprofloxacin, reference compound] |  |  |  |  |  | IC50 (E. faecalis; Enterococcus faecalis): 2.3 ± 0.6 µM; IC50 (E. coli; Escherichia coli, 24 h, IC50 generated when inhibition at 250 μM was higher than 80%): 0.31 ± 0.06 µM; IC50 (S. aureus; Staphylococcus aureus, 24 h, IC50 generated when inhibition at 250 μM was higher than 80%): 0.4 ± 0.06 µM
27 | (14α)-(2′-Carboxy ethyl ester-4′-nitro)phenoxy-andrographolide [6a1] | 72.2 ± 9.2 | / (“/”represents no inhibition or lower than 10% inhibition rate at 250 μM of tested compound) |  |  | (10) % | 
28 | (14α)-(2′-Fluoro-4′-nitro)phenoxy-3,19-acetonylidene andrographolide [5a2] | 56.7 ± 6.5 |  |  | (20) % | (20) % | 

— paper PMC9078697, “Discovery and preliminary SAR of 14-aryloxy-andrographolide derivatives as antibacterial agents with immunosuppressant activity” (RSC Advances, 2018)
